{"source": "patent US20170165286A1", "about": "“COMPOSITIONS AND METHODS FOR TREATING DIABETES AND LIVER DISEASES” (Cempra Pharmaceuticals, Inc., priority 2014, published 2017)", "tested_on": "lung mRNA expression levels", "assay": "Bleomycin-induced lung injury: quantitative RT-PCR of lung", "format": "in vivo", "settings": "bleomycin mice lung, normalized to GAPDH, vehicle 1.00, heading says 50 mg/kg q.d.", "experimental": "Bleomycin-Induced Lung Injury. Lung inflammation is induced in female mice by a single intratracheal administration of bleomycin. Twenty mice are divided into two groups. […] It is to be understood herein that 100 mg/kg in mice is generally considered to be equivalent to a 450-500 mg, such as 480 mg, dose in humans. Animals are sacrificed on Day 7.\nPathogen-free 7 weeks old female C57BL/6J mice are obtained from CLEA Japan (Tokyo, Japan) and allowed to acclimate at least 6 days. On day 0, twenty mice are induced to develop pulmonary fibrosis by a single intratracheal administration of bleomycin sulphate (BLM, Nippon Kayaku, Japan) in 0.9% saline in a volume of 50 μL per animal using a Microsprayer® (Penn-Century, USA). Individual body weight is measured daily during the experiment period. Survival, clinical signs and behavior of mice is monitored daily.\nSolithromycin Reduces Inflammation In Mice Caused By Bleomycin-Induced Lung Injury. Pulmonary fibrosis is a problem in the management of patients who have received chemotherapy for malignancies particularly with regimens that contain bleomycin (BLM), methotrexate, cyclophosphamide, and many new agents. These patients are susceptible to pulmonary infections as well as to inflammation from pulmonary injury. […] The effects of solithromycin on the ability to prevent lung inflammation and fibrosis is described in a bleomycin induced-lung inflammation and fibrosis model. Group 1 (BLM-Vehicle): Ten BLM-induced pulmonary fibrosis model mice are orally administered vehicle (Carboxymethyl cellulose) at a volume of 10 mL/kg once daily from day −2 (two days before BLM administration) to day 6. […]\nQuantitative RT-PCR. Total RNA was extracted from lung samples using RNAiso (Takara Bio, Japan). One μg of RNA was reverse-transcribed using a reaction mixture containing 4.4 mM MgCl2 (Roche, Switzerland), 40 U RNase inhibitor (Toyobo, Japan), 0.5 mM dNTP (Promega, USA), 6.28 μM random hexamer (Promega), 5× first strand buffer (Promega), 10 mM dithiothreitol (Invitrogen) and 200 U MMLV-RT (Invitrogen) in a final volume of 20 μL. The reaction was carried out for 1 hour at 37° C., followed by 5 minutes at 99° C. Real-time PCR was performed using real-time PCR DICE and SYBR premix Taq (Takara Bio). To calculate the relative mRNA expression level, the expression of each gene was normalized to that of reference gene GAPDH.\nAnalyses of BALF (bronchoalveolar lavage fluid). The cells in BALF are counted with a hemocytometer, and cell differentials are determined in cytospin preparations stained with Diff-Quik (Sysmex, Japan) MMP-9 in the supernatants from BALF are quantified by an enzyme-linked immunosorbent assay (ELISA; Cat# MMPT90, R&D Systems, USA). Histopathological assays for lung sections are performed according to standard methods. […]", "data": [{"compound": "CC[C@H]1OC(=O)[C@@](C)(F)C(=O)[C@H](C)[C@@H](O[C@@H]2O[C@H](C)C[C@H](N(C)C)[C@H]2O)[C@](C)(OC)C[C@@H](C)C(=O)[C@H](C)[C@H]2N(CCCCn3cc(-c4cccc(N)c4)nn3)C(=O)O[C@]12C", "note": "[solithromycin]", "values": [{"measurement": "Relative MCP-1 mRNA expression", "result": "0.38 ± 0.32"}, {"measurement": "Relative MMP-9 mRNA expression", "result": "0.42 ± 0.45"}, {"measurement": "Relative TNF-α mRNA expression", "setting": "listed as SOLI", "result": "2.45 ± 2.10"}, {"measurement": "Relative TNF-α mRNA expression", "setting": "listed as Solithromycin", "result": "up-regulated"}]}]}
